Data on 15 molecules can be found in patent US20260265238A1, “COMPOUNDS AND PHARMACEUTICAL COMPOSITIONS THAT DEGRADE SWI/SNF-RELATED MATRIX-ASSOCIATED ACTIN-DEPENDENT REGULATOR OF CHROMATIN SUBFAMILY A” (Plexium, Inc., priority 2023, published 2026).

Test [1] has as its target T1, SMARCA2-HiBiT HeLa cells (protein which is expressed from the SMARCA2 gene) (Homo sapiens, UniProt P51531).
T1 construct: protein which is expressed from the SMARCA2 and SMARCA4 genes; host or cells: HeLa (SMARCA2-HiBiT engineered line)
As to the kind of experiment: SMARCA2 degradation assay (HiBiT-fusion HeLa cell line, 24 h, luminescence). Type of test: cell-based. The method, boiled down:
(§1)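 In this 24-hour cellular degradation readout, HiBiT-tagged HeLa lines received compound at up to typically 10 μM down to 300 pM in 10 points. After lysis with LgBiT and substrate, luminescence signals were used to build dose-response curves for DC50.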

The target in test [2] is T2, SMARCA4-HiBiT HeLa cells (protein which is expressed from the SMARCA4 gene) (Homo sapiens, UniProt P51532).
T2 construct: protein which is expressed from the SMARCA2 and SMARCA4 genes; host or cells: HeLa (SMARCA4-HiBiT engineered line)
As to the kind of experiment: SMARCA4 degradation assay (HiBiT-fusion HeLa cell line, 24 h, luminescence). Type of test: cell-based. The method, boiled down: as §1
(In general: The HiBiT peptide binds its large partner to form an active luciferase.)

T2 sequence (P51532 whole entry): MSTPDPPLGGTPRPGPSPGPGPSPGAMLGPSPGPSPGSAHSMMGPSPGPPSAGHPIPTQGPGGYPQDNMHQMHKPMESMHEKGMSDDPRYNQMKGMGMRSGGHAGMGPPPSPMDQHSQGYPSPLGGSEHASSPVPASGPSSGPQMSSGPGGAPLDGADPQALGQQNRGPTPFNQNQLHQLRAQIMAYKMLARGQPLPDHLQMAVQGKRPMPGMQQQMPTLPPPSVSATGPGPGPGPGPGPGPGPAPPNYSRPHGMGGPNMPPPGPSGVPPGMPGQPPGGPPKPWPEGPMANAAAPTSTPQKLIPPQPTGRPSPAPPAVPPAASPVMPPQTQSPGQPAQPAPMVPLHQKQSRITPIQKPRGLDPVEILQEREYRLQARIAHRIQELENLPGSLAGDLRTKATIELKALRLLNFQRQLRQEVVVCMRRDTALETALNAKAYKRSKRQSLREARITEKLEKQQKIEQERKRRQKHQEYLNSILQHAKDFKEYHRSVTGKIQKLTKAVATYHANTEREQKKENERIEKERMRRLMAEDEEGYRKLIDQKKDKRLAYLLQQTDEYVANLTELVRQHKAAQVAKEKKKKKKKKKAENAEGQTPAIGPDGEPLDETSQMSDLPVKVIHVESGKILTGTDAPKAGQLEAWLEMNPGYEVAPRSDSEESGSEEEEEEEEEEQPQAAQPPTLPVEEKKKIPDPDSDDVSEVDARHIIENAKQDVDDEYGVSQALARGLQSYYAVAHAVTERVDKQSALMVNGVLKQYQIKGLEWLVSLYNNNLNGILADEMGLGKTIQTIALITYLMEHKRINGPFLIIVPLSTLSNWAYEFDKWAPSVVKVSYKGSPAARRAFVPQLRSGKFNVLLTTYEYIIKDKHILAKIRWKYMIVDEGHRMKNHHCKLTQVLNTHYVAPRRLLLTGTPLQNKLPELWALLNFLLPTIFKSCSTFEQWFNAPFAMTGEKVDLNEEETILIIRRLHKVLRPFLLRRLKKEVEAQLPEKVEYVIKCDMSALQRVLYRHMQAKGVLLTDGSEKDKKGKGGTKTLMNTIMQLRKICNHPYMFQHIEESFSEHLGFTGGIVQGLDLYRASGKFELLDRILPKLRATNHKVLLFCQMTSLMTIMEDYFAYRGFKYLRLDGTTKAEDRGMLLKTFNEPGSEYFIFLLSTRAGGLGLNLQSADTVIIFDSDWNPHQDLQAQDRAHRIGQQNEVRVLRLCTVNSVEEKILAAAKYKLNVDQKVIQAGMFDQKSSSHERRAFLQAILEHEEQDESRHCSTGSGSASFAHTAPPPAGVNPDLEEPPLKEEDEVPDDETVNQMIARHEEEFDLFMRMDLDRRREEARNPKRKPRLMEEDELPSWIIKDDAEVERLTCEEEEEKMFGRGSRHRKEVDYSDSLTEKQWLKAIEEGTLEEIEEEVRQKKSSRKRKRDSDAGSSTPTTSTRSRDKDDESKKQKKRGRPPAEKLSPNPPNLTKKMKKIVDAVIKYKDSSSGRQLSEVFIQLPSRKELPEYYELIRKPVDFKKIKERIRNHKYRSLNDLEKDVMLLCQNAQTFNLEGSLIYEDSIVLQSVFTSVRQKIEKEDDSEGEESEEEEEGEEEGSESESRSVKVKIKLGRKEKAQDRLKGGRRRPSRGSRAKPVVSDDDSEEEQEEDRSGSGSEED
T1 sequence (P51531 whole entry): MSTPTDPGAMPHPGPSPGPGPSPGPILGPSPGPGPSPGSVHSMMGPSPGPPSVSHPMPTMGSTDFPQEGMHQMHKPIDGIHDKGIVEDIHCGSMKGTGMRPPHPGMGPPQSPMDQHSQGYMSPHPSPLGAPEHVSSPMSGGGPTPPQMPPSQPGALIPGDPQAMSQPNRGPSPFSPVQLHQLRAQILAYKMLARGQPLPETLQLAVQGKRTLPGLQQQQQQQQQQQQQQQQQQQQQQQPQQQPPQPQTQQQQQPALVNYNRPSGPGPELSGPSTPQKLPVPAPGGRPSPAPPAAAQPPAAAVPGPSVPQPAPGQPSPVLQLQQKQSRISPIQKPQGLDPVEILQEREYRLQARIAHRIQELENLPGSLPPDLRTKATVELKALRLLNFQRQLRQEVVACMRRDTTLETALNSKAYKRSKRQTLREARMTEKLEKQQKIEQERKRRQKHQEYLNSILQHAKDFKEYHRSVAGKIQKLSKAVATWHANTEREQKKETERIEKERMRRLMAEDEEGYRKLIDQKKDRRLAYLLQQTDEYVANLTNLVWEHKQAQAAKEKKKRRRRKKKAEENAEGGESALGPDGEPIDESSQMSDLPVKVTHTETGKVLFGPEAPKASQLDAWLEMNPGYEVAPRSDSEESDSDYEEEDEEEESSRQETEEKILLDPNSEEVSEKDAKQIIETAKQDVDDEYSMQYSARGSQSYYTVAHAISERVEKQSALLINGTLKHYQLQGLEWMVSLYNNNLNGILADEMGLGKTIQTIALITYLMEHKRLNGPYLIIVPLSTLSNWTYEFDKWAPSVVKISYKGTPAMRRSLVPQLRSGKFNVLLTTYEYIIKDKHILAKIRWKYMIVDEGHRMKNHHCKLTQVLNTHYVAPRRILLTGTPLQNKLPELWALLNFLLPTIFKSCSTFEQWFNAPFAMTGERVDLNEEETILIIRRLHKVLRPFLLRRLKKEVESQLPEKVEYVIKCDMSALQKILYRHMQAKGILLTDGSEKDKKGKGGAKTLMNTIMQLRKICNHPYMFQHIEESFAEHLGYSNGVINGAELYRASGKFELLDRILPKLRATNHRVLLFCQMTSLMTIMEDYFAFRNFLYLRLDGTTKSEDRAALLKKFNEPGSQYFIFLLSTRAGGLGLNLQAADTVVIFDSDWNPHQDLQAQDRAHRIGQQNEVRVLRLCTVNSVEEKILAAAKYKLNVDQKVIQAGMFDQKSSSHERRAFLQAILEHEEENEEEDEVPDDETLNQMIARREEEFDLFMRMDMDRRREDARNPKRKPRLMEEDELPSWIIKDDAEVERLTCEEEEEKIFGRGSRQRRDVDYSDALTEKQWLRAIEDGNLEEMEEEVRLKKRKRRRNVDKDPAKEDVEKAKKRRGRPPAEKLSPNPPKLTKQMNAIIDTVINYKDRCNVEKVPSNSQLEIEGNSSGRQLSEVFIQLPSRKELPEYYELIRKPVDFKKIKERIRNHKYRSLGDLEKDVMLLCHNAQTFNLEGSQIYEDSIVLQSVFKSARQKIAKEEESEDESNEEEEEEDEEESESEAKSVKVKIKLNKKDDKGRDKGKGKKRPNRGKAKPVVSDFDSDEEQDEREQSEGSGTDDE

Consider `CC(C)(C)OC(=O)NC/C=C/c1nccc(N2CCCN(c3cc(-c4ccccc4O)nnc3N)CC2)n1` [Compound P-114, tert-butyl (E)-(3-(4-(4-(3-amino-6-(2-hydroxyphenyl)pyridazin-4-yl)-1,4-diazepan-1-yl)pyrimidin-2-yl)allyl)carbamate], for which the 50% degradation concentration (DC50) in test [1] and in test [2] was 0.05 to 0.5 µM throughout. Further, in test [1] (@ 1 μM), the “SMARCA2 % Degradation @ 1 μM” value is “+++ (+++=>70%)”. Moreover, the inhibition at 1 µM in test [2] (@ 1 μM) is 30 to 70%.

Regarding `Nc1nnc(-c2ccccc2O)cc1N1CC2(CCN(c3ccnc(C#CCNC(=O)c4cc5ncccn5n4)n3)CC2)C1` [Compound P-31, N-(3-(4-(2-(3-amino-6-(2-hydroxyphenyl)pyridazin-4-yl)-2,7-diazaspiro[3.5]nonan-7-yl)pyrimidin-2-yl)prop-2-yn-1-yl)pyrazolo[1,5-a]pyrimidine-2-carboxamide], the DC50 in test [1] and in test [2] was 0.05 to 0.5 µM in each case. The “SMARCA2 % Degradation @ 1 μM” value in test [1] (@ 1 μM) was “++ (++=30-70%)”. In test [2] (@ 1 μM), the inhibition at 1 µM fell in the range of 30 to 70%.

`CC(C#Cc1cc(N2CCN(c3cc(-c4ccccc4O)nnc3N)CC[C@H]2C)ccn1)N(C)C` (stereo partly drawn) [Compound P-399, 0-{5-[(R)-4-{2-[3-(dimcthylamino)-1-butynyl]-4-pyridyl}-5-methyl-1,4-diazepan-1-y1]-6-amino-3-pyridazinyl}phenol]: the DC50 in test [1] and in test [2] was under 0.05 µM each time. In addition, in test [1] (1 μM), the “SMARCA2 % Degradation @ 1 μM” value was “++ (++=30-70%)”. In test [2] (1 μM), this molecule displayed an inhibition at 1 µM of 30 to 70%.

In the case of `Nc1nnc(-c2ccccc2O)cc1N1CCCN(c2ccnc(C#CCN3CC4CCC(C3)O4)n2)CC1` [Compound P-315, 0-{6-amino-5-[4-(2-{3-(8-oxa-3-azabicyclo[3.2.1]oct-3-yl)-1-propynyl}-4-pyrimidinyl)-1,4-diazepan-1-yl]-3-pyridazinyl} phenol], the half-maximal degradation concentration (DC50) was 0.05 to 0.5 µM in test [1] and 0.5 to 5 µM in test [2]. In addition, in test [1] (@ 1 μM), the “SMARCA2 % Degradation @ 1 μM” value was “++ (++=30-70%)”. In test [2] (@ 1 μM), this molecule yielded an inhibition at 1 µM of 30 to 70%.

Regarding `C[C@@H]1CCN(c2cc(-c3ccccc3O)nnc2N)CCN1c1ccnc(C#CCN2CC(C#N)C2)n1` [Compound P-215, 1-[3-(4-{ (R)-4-[3-amino-6-(o-hydroxyphenyl)-4-pyridazinyl]-7-methyl-1,4-diazepan-1-yl}-2-pyrimidinyl)-2-propynyl]-3-azetidinecarbonitrile], the half-maximal degradation concentration (DC50) in test [1] and in test [2] was 0.05 to 0.5 µM throughout. Further, in test [1] (@ 1 μM), the “SMARCA2 % Degradation @ 1 μM” value is on record as “+++ (+++=>70%)”. In addition, the inhibition at 1 µM in test [2] (@ 1 μM) fell in the range of 30 to 70%.

On to `CC[C@@H](C)NCC#Cc1nccc(N2CCCN(c3cc(-c4ccccc4O)nnc3N)CC2)n1` [Compound P-274, 0-{5-[4-(2-{3-[(R)-1-methylpropylamino]-1-propynyl}-4-pyrimidinyl)-1,4-diazepan-1-yl]-6-amino-3-pyridazinyl}phenol], for which the 50% degradation concentration (DC50) in test [1] and in test [2] was 0.05 to 0.5 µM in each case. Further, the “SMARCA2 % Degradation @ 1 μM” value in test [1] (@ 1 μM) is on record as “+++ (+++=>70%)”. In addition, the inhibition at 1 µM in test [2] (@ 1 μM) lay within 30 to 70%.

As for `C[C@@H]1CCCN1CC#Cc1nccc(N2CCN(c3cc(-c4ccccc4O)nnc3N)CC[C@H]2C)n1` [Compound P-232, o-{5-[(R)-4-(2-{3-[(R)-2-methyl-1-pyrrolidinyl]-1-propynyl}-4-pyrimidinyl)-5-methyl-1,4-diazepan-1-yl]-6-amino-3-pyridazinyl}phenol], the DC50 in test [1] and in test [2] was under 0.05 µM throughout. Besides, the “SMARCA2 % Degradation @ 1 μM” value in test [1] (@ 1 μM) was “+++ (+++=>70%)”. In test [2] (@ 1 μM), the inhibition at 1 µM was in the range of 30 to 70%.

In the case of `CC1(F)CCN(CC#Cc2nccc(N3CCC4(CC3)CCN(c3cc(-c5ccccc5O)nnc3N)C4)n2)C1` (stereo not drawn) [Compound P-195, o-[6-amino-5-(8-{2-[3-(3-fluoro-3-methyl-1-pyrrolidinyl)-1-propynyl]-4-pyrimidinyl}-2,8-diaza-2-spiro[4.5]decyl)-3-pyridazinyl]phenol], the DC50 in test [1] and in test [2] was 0.05 to 0.5 µM each time. The “SMARCA2 % Degradation @ 1 μM” value in test [1] (@ 1 μM) is given as “++ (++=30-70%)”. The inhibition at 1 µM in test [2] (@ 1 μM) lay within 30 to 70%.

Regarding `COCC#Cc1nccc(N2CCCN(c3cc(-c4ccccc4O)nnc3N)CC2)n1` [Compound P-342, 0-(6-amino-5-{4-[2-(3-mcthoxy-1-propynyl)-4-pyrimidinyl]-1,4-diazepan-1-yl}-3-pyridazinyl)phenol], the 50% degradation concentration (DC50) in test [1] and in test [2] was 0.05 to 0.5 µM throughout. In addition, the “SMARCA2 % Degradation @ 1 μM” value in test [1] (@ 1 μM) is “++ (++=30-70%)”. The same molecule displayed an inhibition at 1 µM in test [2] (@ 1 μM) of 30 to 70%.

With `Nc1nnc(-c2ccccc2O)cc1N1CCC2(CCN(c3ccnc(C#CCNC(=O)c4cc5ncccn5n4)n3)CC2)C1` [Compound P-34, N-(3-(4-(2-(3-amino-6-(2-hydroxyphenyl)pyridazin-4-yl)-2,8-diazaspiro[4.5]decan-8-yl)pyrimidin-2-yl)prop-2-yn-1-yl)pyrazolo[1,5-a]pyrimidine-2-carboxamide], the DC50 in test [1] and in test [2] was 0.05 to 0.5 µM each time. Besides, the “SMARCA2 % Degradation @ 1 μM” value in test [1] (@ 1 μM) is “++ (++=30-70%)”. Moreover, in test [2] (@ 1 μM), the inhibition at 1 µM was 30 to 70%.

On to `CC(C)[C@@H]1COCCN1CC#Cc1nccc(N2CCN(c3cc(-c4ccccc4O)nnc3N)CC[C@H]2C)n1` [Compound P-262, o-{5-[(R)-4-(2-{3-[(R)-3-isopropyl-4-morpholinyl]-1-propynyl}-4-pyrimidinyl)-5-methyl-1,4-diazepan-1-yl]-6-amino-3-pyridazinyl} phenol], for which the DC50 in test [1] and in test [2] was 0.05 to 0.5 µM each time. The “SMARCA2 % Degradation @ 1 μM” value in test [1] (@ 1 μM) is given as “+++ (+++=>70%)”. The inhibition at 1 µM in test [2] (@ 1 μM) was in the range of 30 to 70%.

Turning to `CNCC#Cc1nccc(N2C3CCC2CN(c2cc(-c4ccccc4O)nnc2N)C3)n1` [Compound P-291, 0-[6-amino-5-(8-{2-[3-(methylamino)-1-propynyl]-4-pyrimidinyl}-3,8-diazabicyclo[3.2.1]oct-3-yl)-3-pyridazinyl]phenol], the half-maximal degradation concentration (DC50) in test [1] and in test [2] was 0.05 to 0.5 µM throughout. In addition, in test [1] (@ 1 μM), the “SMARCA2 % Degradation @ 1 μM” value is listed as “++ (++=30-70%)”. For the same molecule, in test [2] (@ 1 μM), the inhibition at 1 µM is under 30%.

As to `Nc1nnc(-c2ccccc2O)cc1N1CCC2(CCCN(c3ccnc(C#CCO)n3)C2)CC1` [Compound P-123, 2-(6-amino-5-(2-(2-(3-hydroxyprop-1-yn-1-yl)pyrimidin-4-yl)-2,9-diazaspiro[5.5]undecan-9-yl)pyridazin-3-yl)phenol], the DC50 in test [1] is 0.05 to 0.5 µM; in test [2] it was under 0.05 µM. In addition, the “SMARCA2 % Degradation @ 1 μM” value in test [1] (@ 1 μM) is “++ (++=30-70%)”. The molecule also registered an inhibition at 1 µM in test [2] (@ 1 μM) of 30 to 70%.

Turning to `Nc1nnc(-c2ccccc2O)cc1N1CCCN(c2ccnc(C#CCN3C[C@H]4C[C@@H]3CO4)n2)CC1` [Compound P-376, 0-(5-{4-[2-(3-{(1R,4R)-2-oxa-5-azabicyclo[2.2.1]hept-5-y1}-1-propynyl)-4-pyrimidinyl]-1,4-diazepan-1-y1}-6-amino-3-pyridazinyl)phenol], the DC50 in test [1] was in the range of 0.05 to 0.5 µM; in test [2] it was 0.5 to 5 µM. In addition, in test [1] (@ 1 μM), the “SMARCA2 % Degradation @ 1 μM” value is given as “++ (++=30-70%)”. In test [2] (@ 1 μM), the inhibition at 1 µM lay within 30 to 70%.

On to `CC(C)c1cc(C(C)C)n(CC#Cc2nccc(N3CCCN(c4cc(-c5ccccc5O)nnc4N)CC3)n2)n1` [Compound P-104, 2-(6-amino-5-(4-(2-(3-(3,5-diisopropyl-1H-pyrazol-1-yl)prop-1-yn-1-yl)pyrimidin-4-yl)-1,4-diazepan-1-yl)pyridazin-3-yl)phenol], for which the DC50 in test [1] was in the range of 0.05 to 0.5 µM; in test [2], 0.5 to 5 µM. The “SMARCA2 % Degradation @ 1 μM” value in test [1] (@ 1 μM) is “+++ (+++=>70%)”. The same molecule displayed an inhibition at 1 µM in test [2] (@ 1 μM) of 30 to 70%.

Usually DC50 stands for the concentration at which degradation of the target reaches its halfway point. High values mean degradation only at high concentration, low ones degradation at low concentration. For orientation: inhibition means the relative decrease from the control value, in per cent. Low values mean a response near the control, high ones a response far below the control.
